From US5185330A, “Penam derivatives and salts thereof, and antibacterial agent comprising the same” (Toyama Chemical Co., Ltd., priority 1989, dated 1993)
In brackets after ≈: the same amount, converted by molar mass. Where two headings read alike, the source gives them in different places.

Assays:
E. coli TK-3 = test: Antibacterial activity (MIC, agar dilution) against E. coli TK-3*; format: cell-based; settings: Escherichia coli
Protocol: (§1) According to Chemotherapy, vol. 29, No. 1, pp. 76-79 (1981), bacterium was cultured in peptone broth manufactured by Eiken Kagaku K.K. at 37° C. for 20 hours to prepare a bacterial solution of 10^8 cells/ml, and one loopful of the bacterial solution was inoculated into Heart Infusion agar medium (manufactured by Eiken Kagaku K.K.) containing a drug, cultured at 37° C. for 20 hours, after which growth of bacterium was observed. The minimum concentration at which the growth of bacterium was prevented was indicated as MIC (μg/ml).
(§2) *means that β-lactamaseproducing bacteria.

S. marcescens W-8 = test: Antibacterial activity (MIC, agar dilution) against S. marcescens W-8*; format: cell-based; settings: Serratia marcescens
Protocol: as §1, §2

[1] = TK3, E. coli TK-3* (β-lactamase-producing bacteria), Heart Infusion agar, 37° C., 20 hours, one loopful of 10^8 cells/ml, read-out: MIC
[2] = W8, S. marcescens W-8* (β-lactamase-producing bacteria), Heart Infusion agar, 37° C., 20 hours, one loopful of 10^8 cells/ml, read-out: MIC

MIC (E. coli TK-3; [1]) [µg/mL] | MIC (S. marcescens W-8; [2]) [µg/mL] | Structure (SMILES) | MIC (S. marcescens W-8; W8, 20 h) [µg/mL] | MIC (E. coli TK-3; TK3, 20 h) [µg/mL]
25 (≈ 47.7 µM) | 12.5 (≈ 23.8 µM) | NC(=O)NN1CCN([C@]2(C(=O)O)CN3C(=O)[C@@H](NC(=O)C(C(=O)O)c4ccc(O)c(O)c4)[C@H]3S2)C1=O (some centres unmarked) [compound 24] |  | 
6.25 (≈ 11.2 µM) | 12.5 (≈ 22.4 µM) | NC(=O)NN1CCN([C@]2(C(=O)O)CN3C(=O)[C@@H](NC(=O)C(C(=O)O)c4cc(O)c(O)cc4Cl)[C@H]3S2)C1=O (some centres unmarked) [compound 25] |  | 
1.56 (≈ 2.22 µM) |  | CC(=O)Oc1ccc(C(C(=O)N[C@@H]2C(=O)N3C[C@@](C(=O)O)(N4CCN(N=C5SCCS5)C4=O)S[C@H]23)S(=O)(=O)O)cc1OC(C)=O (some centres unmarked) [compound 27] |  | 
6.25 (≈ 10.7 µM) | 3.13 (≈ 5.34 µM) | CC(=O)Oc1ccc(C(C(=O)N[C@@H]2C(=O)N3C[C@@](C(=O)O)(N4CCN(NC(N)=O)C4=O)S[C@H]23)S(=O)(=O)O)cc1 (some centres unmarked) [compound 29] |  | 
6.25 (≈ 11.5 µM) | 1.56 (≈ 2.87 µM) | NC(=O)NN1CCN([C@]2(C(=O)O)CN3C(=O)[C@@H](NC(=O)C(c4ccc(N)cc4)S(=O)(=O)O)[C@H]3S2)C1=O (some centres unmarked) [compound 30] |  | 
0.2 (≈ 0.39 µM) | 0.1 (≈ 0.195 µM) | N#CC=CC=NN1CCN([C@]2(C(=O)O)CN3C(=O)[C@@H](NC(=O)C(C(=O)O)c4ccccc4)[C@H]3S2)C1=O (some centres unmarked) [compound 31] |  | 
1.56 (≈ 3.09 µM) | 0.78 (≈ 1.55 µM) | NC(=O)C=NN1CCN([C@]2(C(=O)O)CN3C(=O)[C@@H](NC(=O)C(C(=O)O)c4ccccc4)[C@H]3S2)C1=O (some centres unmarked) [compound 32] |  | 
0.39 (≈ 0.735 µM) | 0.2 (≈ 0.377 µM) | NC(=O)C=CC=NN1CCN([C@]2(C(=O)O)CN3C(=O)[C@@H](NC(=O)C(C(=O)O)c4ccccc4)[C@H]3S2)C1=O (some centres unmarked) [compound 33] |  | 
12.5 (≈ 20.1 µM) | 1.56 (≈ 2.51 µM) | NC(=O)Nc1ccc([C@H](C(=O)N[C@@H]2C(=O)N3C[C@@](C(=O)O)(N4CCN(NC(N)=O)C4=O)S[C@H]23)S(=O)(=O)O)c(Cl)c1 [compound 36] |  | 
 |  | NC(=O)NN1CCN([C@]2(C(=O)O)CN3C(=O)[C@@H](NC(=O)[C@@H](c4ccc(O)c(F)c4)S(=O)(=O)O)[C@H]3S2)C1=O [compound 39] | 0.78 (≈ 1.39 µM) | 3.13 (≈ 5.56 µM)
 |  | NC(=O)NN1CCN([C@]2(C(=O)O)CN3C(=O)[C@@H](NC(=O)[C@@H](c4ccc(O)cc4)S(=O)(=O)O)[C@H]3S2)C1=O [compound 40] | 0.78 (≈ 1.43 µM) | 3.13 (≈ 5.75 µM)
0.2 (≈ 0.308 µM) | 0.2 (≈ 0.308 µM) | NC(=O)NN=CC=NN1CCN([C@]2(C(=O)O)CN3C(=O)[C@@H](NC(=O)[C@@H](c4cc(O)c(O)cc4Cl)S(=O)(=O)O)[C@H]3S2)C1=O [compound 43] |  | 
6.25 (≈ 11.5 µM) | 6.25 (≈ 11.5 µM) | NS(=O)(=O)NN1CCN([C@]2(C(=O)O)CN3C(=O)[C@@H](NC(=O)C(C(=O)O)c4ccc(O)cc4)[C@H]3S2)C1=O (some centres unmarked) [compound 44] |  | 
 |  | C=CC(=O)NN1CCN([C@]2(C(=O)O)CN3C(=O)[C@@H](NC(=O)C(C(=O)O)c4ccc(O)cc4)[C@H]3S2)C1=O (some centres unmarked) [compound 45] | 3.13 (≈ 6.03 µM) | 3.13 (≈ 6.03 µM)
12.5 (≈ 23 µM) | 6.25 (≈ 11.5 µM) | Cn1cc(C=NN2CCN([C@]3(C(=O)O)CN4C(=O)[C@@H](NC(=O)C(C(=O)O)c5ccccc5)[C@H]4S3)C2=O)nn1 (some centres unmarked) [compound 46] |  | 

Structure (SMILES) | MIC (E. coli TK-3; [1]) [µg/mL] | MIC (S. marcescens W-8; [2]) [µg/mL] | MIC (S. marcescens W-8; W8, 20 h) [µg/mL] | MIC (E. coli TK-3; TK3, 20 h) [µg/mL]
O=C(N[C@@H]1C(=O)N2C[C@@](C(=O)O)(N3CCN(N=C4SCCS4)C3=O)S[C@H]12)C(c1ccccc1)S(=O)(=O)O (some centres unmarked) [compound 26] | ≤ 0.1 |  | 0.39 (≈ 0.664 µM) | 
CC(=O)Oc1ccc(C(C(=O)N[C@@H]2C(=O)N3C[C@@](C(=O)O)(N4CCN(NC(N)=O)C4=O)S[C@H]23)S(=O)(=O)O)cc1OC(C)=O (some centres unmarked) [compound 28] | 6.25 (≈ 9.7 µM) |  | 3.13 (≈ 4.86 µM) | 
CC(=O)Oc1cc(Cl)c([C@H](C(=O)N[C@@H]2C(=O)N3C[C@@](C(=O)O)(N4CCN(N=CC=NNC(N)=O)C4=O)S[C@H]23)S(=O)(=O)O)cc1OC(C)=O [compound 34] | 0.2 (≈ 0.273 µM) |  | 0.39 (≈ 0.532 µM) | 
NC(=O)NN1CCN([C@]2(C(=O)O)CN3C(=O)[C@@H](NC(=O)[C@@H](c4ccc(N)cc4Cl)S(=O)(=O)O)[C@H]3S2)C1=O [compound 35] | 1.56 (≈ 2.7 µM) |  | 0.78 (≈ 1.35 µM) | 
NC(=O)NN1CCN([C@]2(C(=O)O)CN3C(=O)[C@@H](NC(=O)[C@@H](c4ccc(O)cc4Cl)S(=O)(=O)O)[C@H]3S2)C1=O [compound 37] |  | 0.2 (≈ 0.345 µM) |  | 0.78 (≈ 1.35 µM)
NC(=O)NN1CCN([C@]2(C(=O)O)CN3C(=O)[C@@H](NC(=O)[C@@H](c4ccc(O)cc4F)S(=O)(=O)O)[C@H]3S2)C1=O [compound 38] | 1.56 (≈ 2.77 µM) |  | 0.78 (≈ 1.39 µM) | 
NC(=O)NN1CCN([C@]2(C(=O)O)CN3C(=O)[C@@H](NC(=O)[C@@H](c4ccc(O)c(O)c4)S(=O)(=O)O)[C@H]3S2)C1=O [compound 41] |  | 1.56 (≈ 2.78 µM) |  | 3.13 (≈ 5.58 µM)
NC(=O)NN1CCN([C@]2(C(=O)O)CN3C(=O)[C@@H](NC(=O)[C@@H](c4cc(O)c(O)cc4Cl)S(=O)(=O)O)[C@H]3S2)C1=O [compound 42] | 0.2 (≈ 0.336 µM) |  | 0.39 (≈ 0.655 µM) | 
CON=C(C(=O)N[C@@H]1C(=O)N2C[C@@](C(=O)O)(N3CCN(N=C4SCCS4)C3=O)S[C@H]12)c1csc(N)n1 [compound 47] |  | 6.25 (≈ 10.9 µM) |  | 0.78 (≈ 1.36 µM)
